According to the NIST ThermoML archive (doi:10.1016/j.jct.2012.03.034):

Test: xn = mol fraction of the nth substance listed
Conditions: 101 kPa, Liquid; for viscosity: dual vibrating plate viscometer, AandD Co. Ltd Model SV-10; for speed of sound: Linear variable-path acoustic interferometer; for mass density: Vibrating tube method

CC[NH+](CC)CC.O=S(=O)([O-])O [triethylammonium hydrogen sulfate] + CN1CCCC1=O
Conditions | mass density, 308.15 K [kg/m3] | mass density, 313.15 K [kg/m3] | speed of sound, 308.15 K [m/s] | speed of sound, 313.15 K [m/s] | viscosity, 303.15 K [mPa·s] | viscosity, 308.15 K [mPa·s] | viscosity, 313.15 K [mPa·s]
x1 = 0.0115 | 1024.16 | 1019.77 | 1541 | 1535 | – | 1.08 | 1.97
x1 = 0.0234 | 1028.44 | 1023.04 | 1552 | 1547 | – | 0.73 | 0.71
x1 = 0.0632 | 1040.72 | 1034.66 | 1574 | 1573 | – | – | 0.73
x1 = 0.0927 | 1048.71 | 1043.09 | 1595 | 1592 | – | – | 0.2
x1 = 0.1387 | 1060.66 | 1055.07 | 1628 | 1624 | – | – | –
x1 = 0.2259 | 1078.74 | 1072.51 | 1682 | 1681 | – | – | 1.97
x1 = 0.2631 | 1085.15 | 1079.29 | 1707 | 1706 | – | 7.75 | 7.8
x1 = 0.3261 | 1094.3 | 1088.65 | 1746 | 1748 | – | 23.71 | 22.1
x1 = 0.4478 | 1107.95 | 1102.48 | 1806 | 1809 | – | 66.53 | 60.67
x1 = 0.5947 | 1119.05 | 1114.67 | 1862 | 1865 | – | 116.6 | 104.9
x1 = 0.7717 | 1128.8 | 1125.81 | 1892 | 1894 | – | 161.59 | 142.04
x1 = 0.9017 | 1135.26 | 1133.51 | 1887 | 1884 | 175.33 | 165.14 | 141.04
x1 = 0.9497 | 1137.73 | 1136.49 | 1880 | 1878 | 168.86 | 156.95 | 131.02
x1 = 1 | 1140.72 | 1140.02 | 1866 | 1859 | 153 | 138 | 108
